Measured values: ChEMBL document CHEMBL1201862, “PubChem BioAssay data set” (2004)
Active and inactive are the calls of the source.

Tests used:
[1] = target: Peroxisome proliferator-activated receptor gamma/Nuclear receptor coactivator 1 (Homo sapiens, UniProt P37231); assay type: functional;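 note: agonist potency as compounds enhance coactivator SRC-1 recruitment to PPARgamma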
[2] = target: DNA dC->dU-editing enzyme APOBEC-3G (Homo sapiens, UniProt Q9HC16); assay: Dose Response confirmation of small molecule APOBEC3G DNA Deaminase Inhibitors via a fluorescence-based single-stranded DNA deaminase assay. [Related pubchem assays (depositor defined):AID493012, AID493028]; assay type: functional
[3] = target: T1, Voltage-gated N-type calcium channel alpha-1B subunit/Amyloid beta A4 precursor protein-binding family A member 1 (Homo sapiens, UniProt Q00975+Q02410); assay type: protein assay
[4] = target: T1, Voltage-gated N-type calcium channel alpha-1B subunit/Amyloid beta A4 precursor protein-binding family A member 1; assay type: protein assay; remark: listed apart in the source
[5] = target: Peroxisome proliferator-activated receptor gamma/Nuclear receptor coactivator 3 (Homo sapiens, UniProt P37231); assay type: functional;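 note: agonist potency for raising coactivator recruitment to the receptor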
[6] = target: Peroxisome proliferator-activated receptor gamma/Nuclear receptor coactivator 2 (Homo sapiens, UniProt P37231); assay type: functional;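 note: agonist potency for raising coactivator recruitment to the receptor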
[7] = Luminescence Cell-Based Secondary HTS screen to identify cytotoxic compounds of NIH3T3 cells. [Related pubchem assays: 1885, 1968 ]; assay type: functional
cells = assay type: functional
[8] = inhibitors of Trypanosoma cruzi host-cell infection, confirmation, beta-gal luminescence, NIH3T3 host cells (AID 2630); assay type: functional, cell-based; details: Mus musculus
[9] = cytotoxicity toward NIH3T3 fibroblasts, dose response, counter-screen, cell-based, ATP luminescence, mouse fibroblasts (AID 2010); assay type: functional;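 note: cells exposed to compound for about 90 hours before reading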
[10] = Luminescence Cell-Based/Microorganism Confirmation at Dose of Inhibitors of Trypanosoma cruzi Infection. [Related pubchem assays: 1885, 1968 ]; assay type: functional
[11] = inhibitors of intracellular T. cruzi replication, confirmation, NIH3T3 host cells, beta-gal luminescence (AID 2044); assay type: functional, cell-based;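 note: intracellular parasites grown in NIH/3T3 mouse fibroblasts as host cells; luminescent beta-galactosidase reporter signal from transgenic T. cruzi replicating inside host cells; inhibitors lower the luminescence signal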
[12] = cytotoxicity in HEK-293T cells, dose response, cytotoxicity control for TCR NF-kB inhibitor project, luminescence, T-cell screen hits (AID 489026); assay type: functional, cell-based;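 note: cells exposed to compound about 14 hours before the viability readout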
[13] = inhibitors of SNCA 5'UTR-driven reporter translation, confirmation, H4 neuroglioma cells, luminescence (AID 1988); assay type: functional, cell-based
[14] = tested on: Streptococcus sp. 'group A'; assay: growth inhibition of control SK(-) GAS strain, dose response, counter-screen for streptokinase expression inhibitor project, luminescence, kanamycin, BacTiterGlo, confirmation (AID 1900); assay type: functional, organism-based
[15] = cytotoxicity toward DRD oncogenic fibroblasts, dose response, cell-based, non-viral oncogenic, luminescence (AID 1934); assay type: functional; details: Homo sapiens
BJ [16] = assay: cytotoxicity toward BJ-TERT-LT-ST fibroblasts, dose response, cell-based, RAS-independent, luminescence (AID 1935); assay type: functional; details: Homo sapiens;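 note: BJ fibroblasts immortalized with TERT plus LT and ST oncogenes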
Streptococcus = assay: Group A Streptococcus viability loss, dose response, counter-screen for streptokinase expression inhibitor project, luminescence, BacTiterGlo (AID 1915); assay type: functional, organism-based;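 note: potency for reduction of bacterial viability or growth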
BJ [17] = assay: cytotoxicity toward BJ-TERT fibroblasts, dose response, cell-based, RAS-independent, luminescence (AID 1933); assay type: functional; details: Homo sapiens
[18] = Luminescence Cell-Based Dose Response HTS to Identify Inhibitors of 5'UTR Stem-Loop Driven Prion Protein mRNA Translation in H4 Neuroglioblastoma Cells. [Related pubchem assays: 1827 (Project Summary), 1813 (Primary HTS)]; assay type: functional
BJ [19] = assay: cells; assay type: functional, cell-based; details: Homo sapiens
[20] = target: Heat shock protein HSP 90-alpha (Homo sapiens, UniProt P07900); assay type: functional, organism-based
INS1 = assay: beta cell apoptosis inhibitors, cytokine rescue, dose response, luminescence, retest (AID 449756); assay type: functional, cell-based; details: Rattus norvegicus;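 note: cell death triggered by IL-1 beta plus TNF-alpha plus IFN-gamma mixture; protective hits raise ATP signal compared with cytokine alone wells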
Streptokinase A = target: T2, Streptokinase A (Streptococcus pyogenes serotype M1, UniProt P10520); assay: S. pyogenes streptokinase expression inhibitors, potency, dose response, plasminogen activation absorbance, OD405 (AID 1914); assay type: functional, Streptococcus pyogenes M1 GAS;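 note: secreted streptokinase activity via plasminogen activation per viability signal from cell pellet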
T2 sequence (P10520 whole entry): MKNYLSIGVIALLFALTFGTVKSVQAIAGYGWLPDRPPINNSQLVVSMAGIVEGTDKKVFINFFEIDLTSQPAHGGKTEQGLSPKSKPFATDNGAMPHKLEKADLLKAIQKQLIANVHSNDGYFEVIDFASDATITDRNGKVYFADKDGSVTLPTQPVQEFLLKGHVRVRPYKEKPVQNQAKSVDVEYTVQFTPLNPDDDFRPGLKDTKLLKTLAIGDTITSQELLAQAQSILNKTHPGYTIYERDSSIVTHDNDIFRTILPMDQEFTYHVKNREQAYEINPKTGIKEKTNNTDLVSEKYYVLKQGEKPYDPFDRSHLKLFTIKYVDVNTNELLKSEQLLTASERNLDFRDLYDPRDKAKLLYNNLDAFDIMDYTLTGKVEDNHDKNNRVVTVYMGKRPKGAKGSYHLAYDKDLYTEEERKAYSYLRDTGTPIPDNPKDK

[21] = inhibitors of firefly luciferase expression or activity, dose response, H4 neuroglioma cells, luminescence (AID 1990); assay type: functional, cell-based
[22] = target: Glucose-6-phosphate 1-dehydrogenase (Homo sapiens, UniProt P11413); assay: human G6PD enzyme inhibitors, dose response, selectivity assay for P. falciparum G6PD inhibitor project, biochemical, fluorescence (AID 504792); assay type: functional
Large T antigen = Large T antigen (Simian virus 40, UniProt P03070); assay type: functional, Betapolyomavirus macacae;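 note: Confirmatory-stage PubChem screen for compounds that inhibit SV40 T antigen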
[23] = target: T3, Alkaline phosphatase, tissue-nonspecific isozyme (Homo sapiens, UniProt P05186); assay: human TNAP enzyme inhibitors, SAR follow-up, biochemical, luminescent, dose response (AID 1056)
T3 sequence (P05186 whole entry): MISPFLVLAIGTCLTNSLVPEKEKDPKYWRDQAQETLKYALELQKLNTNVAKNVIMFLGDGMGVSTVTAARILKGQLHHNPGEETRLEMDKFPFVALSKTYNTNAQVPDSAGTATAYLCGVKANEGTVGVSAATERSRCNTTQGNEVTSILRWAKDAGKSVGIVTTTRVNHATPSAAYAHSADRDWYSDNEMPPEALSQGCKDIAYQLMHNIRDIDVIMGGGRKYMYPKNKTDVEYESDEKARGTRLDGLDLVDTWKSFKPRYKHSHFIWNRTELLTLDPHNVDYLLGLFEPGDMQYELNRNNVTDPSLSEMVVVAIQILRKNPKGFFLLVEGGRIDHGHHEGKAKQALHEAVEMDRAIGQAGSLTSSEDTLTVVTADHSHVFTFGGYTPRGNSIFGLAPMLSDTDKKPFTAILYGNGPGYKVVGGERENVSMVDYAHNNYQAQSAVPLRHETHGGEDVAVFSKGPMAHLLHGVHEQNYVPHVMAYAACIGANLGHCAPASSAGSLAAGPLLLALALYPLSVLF

[24] = target: Glyceraldehyde-3-phosphate dehydrogenase (Homo sapiens, UniProt P04406)
[25] = target: Alkaline phosphatase, placental type (Homo sapiens, UniProt P05187); assay: PLAP enzyme inhibitors, confirmation, biochemical, luminescence (AID 1512); assay type: functional
Sequence of Alkaline phosphatase, placental type (P05187 whole entry): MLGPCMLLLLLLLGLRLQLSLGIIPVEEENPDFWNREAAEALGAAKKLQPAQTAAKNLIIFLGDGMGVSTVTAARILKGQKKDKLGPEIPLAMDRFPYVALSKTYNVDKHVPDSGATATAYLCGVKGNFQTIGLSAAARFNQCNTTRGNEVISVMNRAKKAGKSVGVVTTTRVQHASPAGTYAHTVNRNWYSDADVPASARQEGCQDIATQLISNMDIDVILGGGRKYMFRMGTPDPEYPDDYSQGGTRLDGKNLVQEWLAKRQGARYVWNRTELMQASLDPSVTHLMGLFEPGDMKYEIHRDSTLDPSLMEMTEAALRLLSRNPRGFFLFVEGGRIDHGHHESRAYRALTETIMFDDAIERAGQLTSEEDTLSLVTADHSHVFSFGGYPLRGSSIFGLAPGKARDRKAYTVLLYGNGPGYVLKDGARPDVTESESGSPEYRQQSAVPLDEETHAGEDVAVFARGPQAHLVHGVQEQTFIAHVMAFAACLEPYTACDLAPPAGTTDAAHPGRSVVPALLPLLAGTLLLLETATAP

T1 sequence (Q00975 whole entry): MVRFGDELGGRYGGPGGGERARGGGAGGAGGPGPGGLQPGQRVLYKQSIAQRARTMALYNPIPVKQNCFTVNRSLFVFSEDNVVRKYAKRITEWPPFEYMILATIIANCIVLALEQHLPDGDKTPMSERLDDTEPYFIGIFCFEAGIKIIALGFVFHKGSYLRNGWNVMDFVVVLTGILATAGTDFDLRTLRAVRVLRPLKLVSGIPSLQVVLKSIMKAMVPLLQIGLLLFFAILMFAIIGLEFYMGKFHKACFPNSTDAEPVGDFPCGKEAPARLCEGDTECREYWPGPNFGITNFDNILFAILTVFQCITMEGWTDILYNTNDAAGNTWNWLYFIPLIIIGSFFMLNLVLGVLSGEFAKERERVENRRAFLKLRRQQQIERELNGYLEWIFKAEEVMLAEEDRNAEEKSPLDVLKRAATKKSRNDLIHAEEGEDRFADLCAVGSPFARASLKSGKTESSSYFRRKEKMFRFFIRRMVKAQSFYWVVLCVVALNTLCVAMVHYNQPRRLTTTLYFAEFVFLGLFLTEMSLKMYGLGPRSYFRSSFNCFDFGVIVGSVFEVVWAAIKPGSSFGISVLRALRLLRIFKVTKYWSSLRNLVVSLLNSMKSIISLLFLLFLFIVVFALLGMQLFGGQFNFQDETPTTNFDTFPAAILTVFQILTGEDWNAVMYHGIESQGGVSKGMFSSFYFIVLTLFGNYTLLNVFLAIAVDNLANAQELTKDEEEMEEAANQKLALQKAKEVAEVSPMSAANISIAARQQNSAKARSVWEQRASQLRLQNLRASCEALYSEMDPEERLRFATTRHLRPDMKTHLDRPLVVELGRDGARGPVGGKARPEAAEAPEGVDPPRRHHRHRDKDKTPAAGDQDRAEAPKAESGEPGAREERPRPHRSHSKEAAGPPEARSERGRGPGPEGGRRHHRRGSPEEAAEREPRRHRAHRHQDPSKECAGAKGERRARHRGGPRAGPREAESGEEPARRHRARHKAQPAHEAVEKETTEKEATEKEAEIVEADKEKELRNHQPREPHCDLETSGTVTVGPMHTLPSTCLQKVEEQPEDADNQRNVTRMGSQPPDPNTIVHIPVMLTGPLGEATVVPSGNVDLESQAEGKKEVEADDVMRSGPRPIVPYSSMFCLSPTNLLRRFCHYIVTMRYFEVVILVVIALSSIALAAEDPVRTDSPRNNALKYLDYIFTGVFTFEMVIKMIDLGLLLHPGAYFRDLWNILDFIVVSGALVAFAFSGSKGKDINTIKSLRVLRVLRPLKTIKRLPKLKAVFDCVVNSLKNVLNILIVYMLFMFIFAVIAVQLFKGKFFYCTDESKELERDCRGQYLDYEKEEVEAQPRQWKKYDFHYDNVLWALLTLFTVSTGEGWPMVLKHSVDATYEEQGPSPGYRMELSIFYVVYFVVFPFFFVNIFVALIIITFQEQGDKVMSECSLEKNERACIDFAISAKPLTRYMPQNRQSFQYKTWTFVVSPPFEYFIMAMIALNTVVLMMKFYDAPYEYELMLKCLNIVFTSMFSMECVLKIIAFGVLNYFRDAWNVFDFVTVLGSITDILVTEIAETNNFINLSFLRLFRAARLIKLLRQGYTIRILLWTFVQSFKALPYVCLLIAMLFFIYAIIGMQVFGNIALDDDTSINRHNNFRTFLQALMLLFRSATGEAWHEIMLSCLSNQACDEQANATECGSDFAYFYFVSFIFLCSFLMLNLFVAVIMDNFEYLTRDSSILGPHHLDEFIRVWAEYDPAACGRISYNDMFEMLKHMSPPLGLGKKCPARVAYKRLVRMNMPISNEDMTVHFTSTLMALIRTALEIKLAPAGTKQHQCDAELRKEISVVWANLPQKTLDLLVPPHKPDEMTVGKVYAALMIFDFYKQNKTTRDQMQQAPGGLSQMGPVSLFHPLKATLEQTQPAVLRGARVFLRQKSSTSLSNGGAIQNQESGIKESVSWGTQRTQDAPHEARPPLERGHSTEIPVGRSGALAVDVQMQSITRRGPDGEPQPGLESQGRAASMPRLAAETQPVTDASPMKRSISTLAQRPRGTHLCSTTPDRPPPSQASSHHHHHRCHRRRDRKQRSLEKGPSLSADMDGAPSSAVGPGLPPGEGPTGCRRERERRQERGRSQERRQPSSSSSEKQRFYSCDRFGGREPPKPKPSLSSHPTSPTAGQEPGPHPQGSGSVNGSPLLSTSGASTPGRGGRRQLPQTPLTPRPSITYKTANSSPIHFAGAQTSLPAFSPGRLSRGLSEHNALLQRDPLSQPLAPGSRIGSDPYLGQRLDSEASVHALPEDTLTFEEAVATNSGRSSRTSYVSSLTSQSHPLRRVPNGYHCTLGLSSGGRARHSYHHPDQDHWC
T1 sequence (Q02410 whole entry): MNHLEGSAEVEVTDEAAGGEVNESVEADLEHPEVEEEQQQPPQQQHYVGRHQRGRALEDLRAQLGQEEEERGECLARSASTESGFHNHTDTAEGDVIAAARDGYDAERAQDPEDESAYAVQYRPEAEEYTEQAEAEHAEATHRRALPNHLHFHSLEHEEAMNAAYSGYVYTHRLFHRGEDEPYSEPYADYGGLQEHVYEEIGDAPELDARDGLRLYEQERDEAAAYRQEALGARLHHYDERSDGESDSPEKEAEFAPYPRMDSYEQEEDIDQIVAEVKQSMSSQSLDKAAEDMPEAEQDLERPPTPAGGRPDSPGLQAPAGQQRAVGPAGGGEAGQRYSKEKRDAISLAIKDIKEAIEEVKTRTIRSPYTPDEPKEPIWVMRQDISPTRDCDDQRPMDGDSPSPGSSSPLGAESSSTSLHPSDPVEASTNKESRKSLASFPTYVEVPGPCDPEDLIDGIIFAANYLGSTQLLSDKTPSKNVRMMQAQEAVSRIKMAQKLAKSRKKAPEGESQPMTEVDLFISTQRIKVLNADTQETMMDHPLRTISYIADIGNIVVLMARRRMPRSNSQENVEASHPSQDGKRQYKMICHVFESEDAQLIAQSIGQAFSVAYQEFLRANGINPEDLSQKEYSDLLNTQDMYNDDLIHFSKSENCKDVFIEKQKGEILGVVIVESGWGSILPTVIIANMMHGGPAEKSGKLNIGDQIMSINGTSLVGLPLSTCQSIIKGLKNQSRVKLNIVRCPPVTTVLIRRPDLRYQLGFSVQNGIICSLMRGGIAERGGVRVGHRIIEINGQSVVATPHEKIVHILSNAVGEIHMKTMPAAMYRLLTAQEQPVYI
Sequence of Glucose-6-phosphate 1-dehydrogenase (P11413 whole entry): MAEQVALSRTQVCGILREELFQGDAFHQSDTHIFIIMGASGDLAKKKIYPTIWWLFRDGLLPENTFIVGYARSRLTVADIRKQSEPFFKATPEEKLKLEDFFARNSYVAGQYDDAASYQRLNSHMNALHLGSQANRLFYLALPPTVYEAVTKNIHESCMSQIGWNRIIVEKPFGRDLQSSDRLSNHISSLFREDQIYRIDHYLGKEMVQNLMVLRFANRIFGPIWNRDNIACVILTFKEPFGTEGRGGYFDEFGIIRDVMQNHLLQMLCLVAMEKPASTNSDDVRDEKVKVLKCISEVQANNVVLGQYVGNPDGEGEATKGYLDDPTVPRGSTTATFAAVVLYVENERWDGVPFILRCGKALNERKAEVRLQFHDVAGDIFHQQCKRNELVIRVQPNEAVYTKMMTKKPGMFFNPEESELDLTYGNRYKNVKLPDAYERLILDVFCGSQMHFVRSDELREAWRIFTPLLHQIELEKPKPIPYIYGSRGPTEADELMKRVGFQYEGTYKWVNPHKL
Sequence of Glyceraldehyde-3-phosphate dehydrogenase (P04406 whole entry): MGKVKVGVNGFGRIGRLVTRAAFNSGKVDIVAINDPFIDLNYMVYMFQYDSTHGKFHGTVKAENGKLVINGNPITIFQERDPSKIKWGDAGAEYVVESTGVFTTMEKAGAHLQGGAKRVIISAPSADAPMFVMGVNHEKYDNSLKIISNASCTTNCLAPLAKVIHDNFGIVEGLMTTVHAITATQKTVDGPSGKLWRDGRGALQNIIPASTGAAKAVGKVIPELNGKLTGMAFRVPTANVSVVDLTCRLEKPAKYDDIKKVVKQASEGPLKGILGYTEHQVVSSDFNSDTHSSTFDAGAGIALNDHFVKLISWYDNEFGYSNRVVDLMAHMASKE
Sequence of DNA dC->dU-editing enzyme APOBEC-3G (Q9HC16 whole entry): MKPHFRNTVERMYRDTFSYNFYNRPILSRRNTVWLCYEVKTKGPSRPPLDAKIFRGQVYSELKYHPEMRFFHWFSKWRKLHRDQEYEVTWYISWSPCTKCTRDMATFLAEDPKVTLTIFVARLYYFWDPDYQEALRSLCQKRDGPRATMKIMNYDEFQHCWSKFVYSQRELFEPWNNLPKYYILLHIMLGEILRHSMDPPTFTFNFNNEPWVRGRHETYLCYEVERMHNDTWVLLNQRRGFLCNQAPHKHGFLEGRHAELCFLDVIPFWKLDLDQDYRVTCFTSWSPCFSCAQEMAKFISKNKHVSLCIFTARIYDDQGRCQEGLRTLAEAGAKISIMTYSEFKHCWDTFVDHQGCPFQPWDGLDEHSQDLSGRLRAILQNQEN

In the case of `CCc1ccc(N2CSC3=C(C#N)C(c4cccs4)CC(=O)N3C2)cc1` (stereo unspecified), the EC50 [1] is reported as 63.3 µM (not active), the IC50 [2] is reported as 8.18 µM (active) and the IC50 [3] is reported as > 50 µM (inactive). The IC50 [4] was 13.1 µM (active), the EC50 [5] was 77.8 µM (not active) and the EC50 [6] was 50.7 µM (not active).
For `CC(C)(C)OC(=O)N/N=C\c1ccc([N+](=O)[O-])s1`, the EC50 [7] was > 195 µM (not active), the IC50 (cells) was 27.3 µM (active) and the EC50 [8] was 2.46 µM (active). For the same compound, the EC50 [9] was > 60 µM (not active), the EC50 [10] was 2.46 µM (active) and the EC50 [11] was 2.7 µM (active).
In the case of `CCO[C@H]1OC(C(=O)NCc2nc3ccccc3[nH]2)=C[C@@H](C2CC2)[C@@H]1CCCO`, the IC50 [12] is reported as > 80 µM (inactive).
With `COc1cc(/C=C/C(=O)c2ccc([N+](=O)[O-])o2)ccc1O` the EC50 [13] was 8.16 µM (active), the EC50 [14] was 3.09 µM (active) and the EC50 [15] was 2.04 µM (inconclusive). For the same compound, the EC50 (BJ [16]) was 1.09 µM (inconclusive), the EC50 (Streptococcus) was 11.8 µM (active) and the EC50 (BJ [17]) was > 150 µM (not active). For the same compound, the EC50 [18] was 7.59 µM (active), the EC50 (BJ [19]) was > 150 µM (inconclusive) and the IC50 [12] was 28.5 µM (inactive). The AC50 [20] was 4.28 µM (active), the AC50 (INS1) was 2.68 µM (active) and the EC50 (Streptokinase A) was 12.8 µM (active). The EC50 [21] was > 30 µM (not active), the IC50 [22] was 60.4 µM (inactive) and the IC50 (Large T antigen) was 8.65 µM (active).
In the case of `CC1(C)CC(=O)c2c(/C=C/c3ccccc3)n[nH]c2C1`, the IC50 [23] is reported as > 100 µM (inactive), the IC50 [24] is reported as > 100 µM (not active) and the IC50 [25] is reported as > 100 µM (inactive).
